Results on 64 compounds are retold here after patent US11497751B2, “Modulators of Rho-associated protein kinase” (Redx Pharma PLC, priority 2018, dated 2022).

The target of the experiment is T1, N-terminal 6His-tagged ROCK2 catalytic domain 11-552 (Homo sapiens, UniProt O75116).
T1 construct: N-terminal 6His-tagged ROCK2 catalytic domain 11-552; 6His (N); purchased Dundee University, UK; host or cells: baculovirus expression system
T1 sequence (O75116 11-552): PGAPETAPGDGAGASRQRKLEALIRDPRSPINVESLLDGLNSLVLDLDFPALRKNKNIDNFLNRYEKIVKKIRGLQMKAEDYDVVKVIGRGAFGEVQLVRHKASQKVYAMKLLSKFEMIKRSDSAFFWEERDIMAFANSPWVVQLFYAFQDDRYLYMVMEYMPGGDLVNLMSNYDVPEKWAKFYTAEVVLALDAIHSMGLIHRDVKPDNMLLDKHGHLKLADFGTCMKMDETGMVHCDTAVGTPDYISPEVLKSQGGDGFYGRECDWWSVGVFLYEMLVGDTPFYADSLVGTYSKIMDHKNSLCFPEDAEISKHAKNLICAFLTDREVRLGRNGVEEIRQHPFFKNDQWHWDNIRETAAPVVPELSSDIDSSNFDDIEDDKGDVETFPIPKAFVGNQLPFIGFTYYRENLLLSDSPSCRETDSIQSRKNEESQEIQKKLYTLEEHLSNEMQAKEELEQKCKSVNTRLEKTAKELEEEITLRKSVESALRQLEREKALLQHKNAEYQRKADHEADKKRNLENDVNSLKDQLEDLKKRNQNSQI
Put plainly: ROCK2 binding activity: ROCK2 inhibition, ADP-Glo Kinase Assay. The format is biochemical. As to conditions: 1.25 nM ROCK2, 100 μM long S6 peptide, 20 μM ATP; 1 hour pre-incubation; read-out: ADP-Glo kinase activity assay ROCK2 Category. A digest of the protocol: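 1.25 nM baculovirus-expressed ROCK2 pre-incubated 1 h with compound (1% DMSO), then 100 μM long S6 peptide and 20 μM ATP added for 1 h; 50 mM HEPES pH 7.5, 10 mM Mg acetate, 1 mM DTT. ADP-Glo luminescence; IC50 from four-parameter logistic fit.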
A general note: ADP-Glo first removes unused ATP, then detects ADP through luciferase.
Take `Cn1nc(-c2ccc3c(c2)CCN(CC(F)(F)F)C3)nc1Nc1ccc2[nH]ncc2c1Cl` [Example 372]: the IC50 was under 0.3 µM.

`COc1cc(-c2nc(Nc3ccc4[nH]ncc4c3)n(CCN3CCCCC3)n2)ccc1OCC(=O)NC(C)C` [Example 445]: the IC50 was under 0.3 µM.

Regarding `CC(C)NC(=O)OCc1ccc(-c2nnc(Nc3ccc4[nH]ncc4c3)[nH]2)cc1` [Example 34], the IC50 is under 0.3 µM.

`CC(C)n1nccc1-c1nc(Nc2ccc3[nH]ncc3c2Cl)n(C)n1` [Example 112]: the IC50 fell in the range of 0.3 to 3 µM.

Take `CC(C)NC(=O)CCc1ccc(-c2nnc(Nc3ccc4[nH]ncc4c3)[nH]2)cc1` [Example 20]: the IC50 is 0.3 to 3 µM.

As for `Cn1nc(-c2cnn(Cc3ccccc3)c2)nc1Nc1ccc2[nH]ncc2c1Cl` [Example 60], the IC50 lay within 0.3 to 3 µM.

For the compound `COc1cc(-c2nc(Nc3ccc4[nH]ncc4c3)n(CCN3CCOCC3)n2)ccc1OCC(=O)NC(C)C` [Example 446], the IC50 was under 0.3 µM.

`COc1cc(-c2nc(Nc3cc4cn[nH]c4cc3C)n(C)n2)ccc1C(=O)NCC(F)(F)F` [Example 335]: the IC50 is over 10 µM.

`CCc1c(Nc2nc(-c3ccc(C(=O)NC4CN(C)C4)c(OC)c3)nn2C)ccc2[nH]ncc12` [Example 315]: the IC50 lay in the range of 0.3 to 3 µM.

For `Cn1nc(-c2cccc(C#N)c2)nc1Nc1ccc2[nH]ncc2c1Cl` [Example 110], the IC50 was 0.3 to 3 µM.

Turning to `CCNC(=O)c1ccc(-c2nc(Nc3ccc4[nH]ncc4c3Cl)n(C)n2)cc1F` [Example 43, 4-[5-[(4-chloro-1H-indazol-5-yl)amino]-1-methyl-1,2,4-triazol-3-yl]-N-ethyl-2-fluoro-benzamide], the IC50 is under 0.3 µM.

`Cn1nc(-c2ccc(C(=O)NC3(C)CC3)c(Cl)c2)nc1Nc1ccc2[nH]ncc2c1Cl` [Example 255]: the IC50 was 0.3 to 3 µM.

In the case of `CC(C)NC(=O)C(C)(C)Oc1ccc(-c2nnc(Nc3ccc4[nH]ncc4c3)[nH]2)cc1` [Example 19], the IC50 is 0.3 to 3 µM.

Consider `CC(C)C(=O)N1CCc2cc(-c3nc(Nc4ccc5[nH]ncc5c4Cl)n(C)n3)ccc2C1` [Example 236, 1-[6-[5-[(4-chloro-1H-indazol-5-yl)amino]-1-methyl-1,2,4-triazol-3-yl]-3,4-dihydro-1H-isoquinolin-2-yl]-2-methyl-propan-1-one], for which the IC50 was under 0.3 µM.

On to `Cn1nc(-c2ccc(-c3ccccn3)cc2)nc1Nc1ccc2[nH]ncc2c1C1CC1` [Example 390], for which the IC50 was under 0.3 µM.

`COc1cc(-c2nc(Nc3ccc4[nH]ncc4c3Cl)n(C)n2)ccc1OCC(=O)NC1(CO)CCCC1` [Example 50]: the IC50 is under 0.3 µM.

Turning to `COCCNC(=O)COc1ccc(-c2nnc(Nc3ccc4[nH]ncc4c3)[nH]2)cc1` [Example 155], the IC50 lay within 0.3 to 3 µM.

With `COc1cc(-c2nc(Nc3ccc4[nH]ncc4c3)n(C)n2)ccc1C(=O)NC(C)C` [Example 169], the IC50 is under 0.3 µM.

For the compound `COc1cc(-c2nnc(Nc3ccc4[nH]ncc4c3)n2-c2ccccn2)ccc1OCC(=O)NC(C)C` [Example 147], the IC50 is under 0.3 µM.

For `CCOC(=O)c1cncc(-c2nc(Nc3ccc4[nH]ncc4c3Cl)n(C)n2)c1` [Example 90], the IC50 is under 0.3 µM.

For `CCNC(=O)c1ccc(-c2nc(Nc3ccc4[nH]ncc4c3C3CC3)n(C)n2)cc1C` [Example 277], the IC50 is under 0.3 µM.

In the case of `Cn1nc(-c2ccc(C(=O)NC3(CO)CCCC3)cc2)nc1Nc1ccc2[nH]ncc2c1C1CC1` [Example 308], the IC50 was under 0.3 µM.

For the compound `Cc1cc(-c2nc(Nc3ccc4[nH]ncc4c3Cl)n(CC(C)C)n2)ccc1C(=O)NCC(F)(F)F` [Example 435], the IC50 is under 0.3 µM.

In the case of `CC(C)NC(=O)COc1ccc(-c2nc(Nc3ccc4[nH]ncc4c3)n(C)n2)cc1F` [Example 473], the IC50 is under 0.3 µM.

Turning to `CCNC(=O)N1CCC(c2nc(Nc3ccc4[nH]ncc4c3C3CC3)n(C)n2)CC1` [Example 340, 4-[5-[(4-cyclopropyl-1H-indazol-5-yl)amino]-1-methyl-1,2,4-triazol-3-yl]-N-ethyl-piperidine-1-carboxamide], the IC50 was over 10 µM.

`CC[C@@H](C)[C@H](NC(=O)c1ccc(-c2nc(Nc3ccc4[nH]ncc4c3C3CC3)n(C)n2)cc1)C(=O)OC` [Example 304]: the IC50 is under 0.3 µM.

Consider `CC(C)NC(=O)COc1ccc(-c2nc(Nc3ccc4[nH]ncc4c3)n(C)n2)c(F)c1` [Example 405], for which the IC50 was under 0.3 µM.

As for `COC(=O)CNC(=O)c1ccc(-c2nc(Nc3ccc4[nH]ncc4c3C3CC3)n(C)n2)cc1` [Example 296], the IC50 is 0.3 to 3 µM.

As for `COc1cc(-c2nc(Nc3ccc4[nH]ncc4c3C3CC3)n(C)n2)ccc1OCC(=O)NC(C)C` [Example 274], the IC50 was under 0.3 µM.

On to `CCNC(=O)c1ccc(-c2nc(Nc3ccc4[nH]ncc4c3Cl)n(C)n2)c(C(F)(F)F)c1` [Example 357], for which the IC50 was under 0.3 µM.

In the case of `CNC(=O)c1ccc(-c2nc(Nc3ccc4[nH]ncc4c3Cl)n(C)n2)cn1` [Example 124], the IC50 is under 0.3 µM.

As for `COc1cc(-c2nc(Nc3ccc4[nH]ncc4c3F)n(C)n2)ccc1C(=O)NC(C)(C)C` [Example 336], the IC50 was under 0.3 µM.

With `CCNC(=O)c1ccc(-c2nc(Nc3ccc4[nH]ncc4c3C)n(C)n2)cc1OC` [Example 180], the IC50 is under 0.3 µM.

With `O=C(O)COc1ccc(-c2nnc(Nc3ccc4[nH]ncc4c3)[nH]2)cc1` [Example 31], the IC50 lay in the range of 0.3 to 3 µM.

Consider `CC(C)NC(=O)COc1c(F)cc(-c2nnc(Nc3ccc4[nH]ncc4c3)[nH]2)cc1F` [Example 36], for which the IC50 lay within 0.3 to 3 µM.

For `Cc1n[nH]c2ccc(Nc3nc(-c4ccc(C(=O)NCC(F)(F)F)cc4)nn3C)cc12` [Example 427], the IC50 was under 0.3 µM.

Take `Cn1nc(-c2cncc(N)c2)nc1Nc1ccc2[nH]ncc2c1Cl` [Example 130]: the IC50 is under 0.3 µM.

For the compound `COc1cc(OCC(=O)NC(C)C)ccc1-c1nc(Nc2ccc3[nH]ncc3c2)n(C)n1` [Example 404], the IC50 is under 0.3 µM.

Turning to `COC(=O)c1ccc(-c2nc(Nc3ccc4[nH]ncc4c3Cl)n(C)n2)cc1` [Example 56], the IC50 is under 0.3 µM.

As for `CNCCn1nc(-c2ccc(C(=O)NCC(F)(F)F)cc2)nc1Nc1ccc2[nH]ncc2c1C1CC1` [Example 443], the IC50 is under 0.3 µM.

Regarding `CN1CCC(NC(=O)COc2ccc(-c3nnc(Nc4ccc5[nH]ncc5c4)[nH]3)cc2)C1` (stereo not shown) [Example 163], the IC50 was 0.3 to 3 µM.

In the case of `COc1cc(-c2nc(Nc3ccc4[nH]ncc4c3Cl)n(C)n2)ccc1OCC(=O)NC1CCNC1` (stereo not shown) [Example 49], the IC50 was under 0.3 µM.

As to `CCNC(=O)c1c(F)cc(-c2nc(Nc3ccc4[nH]ncc4c3)n(C)n2)cc1F` [Example 410], the IC50 is 0.3 to 3 µM.

For the compound `Cn1nc(-c2ccc(C(=O)NC3(CO)CC3)cc2)nc1Nc1ccc2[nH]ncc2c1C1CC1` [Example 293], the IC50 is under 0.3 µM.

`Cn1nc(-c2cccc(CNS(C)(=O)=O)c2)nc1Nc1ccc2[nH]ncc2c1Cl` [Example 75]: the IC50 was under 0.3 µM.

For `COc1cc(-c2nc(Nc3ccc4[nH]ncc4c3Cl)n(C)n2)ccc1C(=O)NC1CCN(C)C1` (stereo not shown) [Example 202], the IC50 is under 0.3 µM.

On to `COc1cc(-c2nc(Nc3ccc4[nH]ncc4c3Cl)n(CC(C)C)n2)ccc1OCC(=O)NC(C)C` [Example 436], for which the IC50 was under 0.3 µM.

With `CCNC(=O)c1ccc(-c2nc(Nc3ccc4[nH]ncc4c3Cl)n(C)n2)cc1` [Example 253], the IC50 was under 0.3 µM.

For `Cn1nc(-c2ccc3c(c2)COC3=O)nc1Nc1ccc2[nH]ncc2c1C1CC1` [Example 381], the IC50 is under 0.3 µM.

As for `COc1cc(-c2nc(Nc3ccc4[nH]ncc4c3Cl)n(C(C)C)n2)ccc1C(=O)NC(C)C` [Example 191], the IC50 is under 0.3 µM.

With `CCNC(=O)c1ccc(-c2nc(Nc3ccc4[nH]ncc4c3C3CC3)n(C)n2)cc1F` [Example 387], the IC50 was under 0.3 µM.

Take `COc1cc(-c2nc(Nc3cnc4[nH]ncc4c3)n(C)n2)ccc1OCC(=O)NC(C)C` [Example 433]: the IC50 fell in the range of 0.3 to 3 µM.

Regarding `COc1cc(-c2nc(Nc3ccc4[nH]ncc4c3Cl)n(C)n2)ccc1C(N)=O` [Example 203], the IC50 is under 0.3 µM.

On to `Cn1nc(-c2cccc(C(=O)NCC(F)(F)F)c2)nc1Nc1ccc2[nH]ncc2c1Cl` [Example 268], for which the IC50 is under 0.3 µM.

In the case of `COc1cc(-c2nc(Nc3ccc4[nH]ncc4c3Cl)n(C)n2)ccc1C(=O)NC1(C)CC1` [Example 264], the IC50 was under 0.3 µM.

Take `Cn1nc(-c2ccc(CNS(=O)(=O)c3cccc(Cl)c3)cc2)nc1Nc1ccc2[nH]ncc2c1Cl` [Example 374]: the IC50 was under 0.3 µM.

Turning to `NCCOc1ccc(-c2nnc(Nc3ccc4[nH]ncc4c3)[nH]2)cc1` [Example 24], the IC50 fell in the range of 0.3 to 3 µM.

On to `CCNC1(COc2ccc(-c3nnc(Nc4ccc5[nH]ncc5c4)[nH]3)cc2)COC1` [Example 229, N-[5-[4-[[3-(ethylamino)oxetan-3-yl]methoxy]phenyl]-4H-1,2,4-triazol-3-yl]-1H-indazol-5-amine], for which the IC50 was 0.3 to 3 µM.

As to `CCNC(=O)c1ccc(-c2nc(Nc3ccc4[nH]ncc4c3)n(C)n2)cc1C#N` [Example 412], the IC50 is under 0.3 µM.

As for `Cn1nc(-c2ccc(C(=O)N[C@H]3C[C@@H]3F)cc2)nc1Nc1ccc2[nH]ncc2c1C1CC1` [Example 299], the IC50 is under 0.3 µM.

Take `COc1cc(-c2nc(Nc3ccc4[nH]ncc4c3Cl)n(C)n2)ccc1C(=O)NC1CCOCC1` [Example 196]: the IC50 was under 0.3 µM.

For `Cn1nc(-c2ccc(C(=O)NC(C)(C)C)cc2)nc1Nc1ccc2[nH]ncc2c1Cl` [Example 257], the IC50 was under 0.3 µM.

Consider `COC(=O)COc1ccc(-c2nnc(Nc3ccc4[nH]ncc4c3)[nH]2)cc1` [Example 17], for which the IC50 was under 0.3 µM.

Regarding `CCNC(=O)c1ccc(-c2nc(Nc3ccc4[nH]ncc4c3C3CC3)n(C)n2)c(OC)c1` [Example 279], the IC50 was under 0.3 µM.
